Consider three compounds from patent publication US20260007679A1, “METHODS OF TREATING CANCER USING 3-(4-((4-(MORPHOLINOMETHYL)BENZYL)OXY)-1-OXOISOINDOLIN-2-YL)PIPERIDINE-2,6-DIONE” (Celgene Corporation, priority 2012, published 2026).

The term pEC50 denotes −log10 of the EC50, conventionally taken in molar units. Low readings indicate a large EC50, high ones a small EC50.

Assay [1] concerns megakaryocyte progenitor cells (normal human bone marrows). As to the kind of experiment: Megakaryocyte colony formation assay. In kind it is cell-based. Conditions: Homo sapiens, 14-16 days. On the procedure: Colony formation assay was conducted with normal human bone marrows treated in semi-solid collagen matrix with compound/IL-3/IL-6/Tpo for 14-16 days, and the results are summarized in Table 7.

Assay [2] concerns DoHH2 Follicular Lymphoma xenograft. As to the kind of experiment: DoHH2 Follicular Lymphoma xenograft model. In kind it is in vivo, mouse.
Assay [3] deals with WSU-DLCL2 DLBCL xenograft. Description: WSU-DLCL2 DLBCL xenograft model.
The subject of assay [4] is purified primary human T cells stimulated using immobilized anti-CD3 antibody. Description: T-cell costimulation, IL-2 production. The assay is classed as cell-based. The protocol:
CRBN ubiquitination was measured in HEK293T cells, which were transfected with an amino-terminal His-biotin-tagged CRBN construct, then preincubated with compounds for one hour followed by treatment with the MG132 proteasome inhibitor (to arrest degradation of ubiquitinated proteins). Cells were lysed and processed to measure CRBN ubiquitination by SDS-PAGE and immunoblot analysis using an anti-ubiquitin antibody. Cell proliferation studies were conducted in lenalidomide-sensitive and refractory multiple myeloma cells. […] T-cell costimulation was measured in purified primary human T cells stimulated using immobilized anti-CD3 antibody in cell culture for 2 days, and cytokine secretion was measured by ELISA.

The test system of assay [5] is NCI-H929 cells (Control, Revlimid-sensitive, parental). As to the kind of experiment: Proliferation and viability by 7-AAD staining. The conditions noted are these: Homo sapiens, NCI-H929, 120 h, read-out: IC50, proliferation. The assay is classed as cell-based.
In assay [6] the test system is Revlimid-resistant NCI-H929 R1-10. Description: Proliferation and viability by 7-AAD staining. The assay is classed as cell-based. The conditions noted are these: Homo sapiens, NCI-H929, 120 h, read-out: IC50, proliferation.
The subject of assay [7] is Revlimid-resistant NCI-H929 R2-10. As to the kind of experiment: Proliferation and viability by 7-AAD staining. In kind it is cell-based. Conditions: Homo sapiens, NCI-H929, 120 h, read-out: IC50, proliferation.
Assay [8] concerns Revlimid-resistant NCI-H929 R3-10. Description: Proliferation and viability by 7-AAD staining. The assay is classed as cell-based. The conditions noted are these: Homo sapiens, NCI-H929, 120 h, read-out: IC50, proliferation.
Assay [9] has as its system Revlimid-resistant NCI-H929 R4-10. Description: Proliferation and viability by 7-AAD staining. The assay is classed as cell-based. Conditions: Homo sapiens, NCI-H929, 120 h, read-out: IC50, proliferation.
The target in assay [10] is T1, endogeneous human CRBN (U266 extract) (Homo sapiens, UniProt Q96SW2).
T1 construct: endogenous in cells; host or cells: U266 human multiple myeloma cells (NP-40 lysate)
As to the kind of experiment: Thalidomide affinity bead competition assay. The assay is classed as binding. The conditions noted are these: 3 μM. On the procedure: Affinity beads coupled to a thalidomide acid analog were incubated with the U266 extracts and, after extensive washing of the beads, the bound proteins were eluted. CRBN binding to the thalidomide-coupled affinity beads was determined by quantitative CRBN immunoblot determination.

Assay [11] concerns normal donor peripheral blood mononuclear cells. Description: Immunoglobulin M and G production. In kind it is cell-based. The conditions noted are these: Homo sapiens, PBMC. On the procedure: Immunoglobulin M and G (“IgG and IgM”) production was measured from normal donor peripheral blood mononuclear cells by culturing in the presence of the B cell differentiation factors recombinant human IL-2 (20U/mL), IL-10 (50 ng/mL), IL-15 (10 ng/mL), His-tagged CD40 Ligand (50 ng/mL), polyHistidine mouse IgG1 antibody (5 μg/mL), and ODN 2006-Human TLR9 ligand (10 μg/mL) for 4 days, followed by IL-2, IL-10, IL-15, and IL-6 (50 ng/mL) for an additional 3 days. IgM and IgG were measured by ELISA.

[12] abbreviates: Bone Marrow ID 0090128, read-out: Immature Colony IC50.
The mark [13] stands for this setting: Bone Marrow ID 0090128, read-out: Intermediate Colony IC50.
The mark [14] stands for this setting: Bone Marrow ID 0090616, read-out: Immature Colony IC50.
[15] abbreviates: Bone Marrow ID 0090616, read-out: Intermediate Colony IC50.
Setting [16] is: Bone Marrow ID 0090714, read-out: Immature Colony IC50.
Where [17] appears, read: Bone Marrow ID 0090714, read-out: Intermediate Colony IC50.
Where [18] appears, read: 30 mg/kg monotherapy, Compound I-S: 84% S-enantiomer, 16% R-enantiomer.
Where [19] appears, read: 30 mg/kg with Rituxan 1 mg/kg, Compound I-S: 84% S-enantiomer, 16% R-enantiomer.
[20] abbreviates: 40 mg/kg monotherapy, Compound I-S: 91% S-enantiomer, 9% R-enantiomer.

pEC50, pIC50: −log10 of the molar value. Read-outs that look alike come from different tables or passages of the source. Some results are limits rather than exact numbers.

Regarding `Nc1cccc2c1CN(C1CCC(=O)NC1=O)C2=O` (stereo not shown) [Revlimid, lenalidomide, reference compound], the pIC50 in [1] (setting [12]) was 5.89; in assay [1] (setting [13]), below 5.00; in assay [1] (setting [14]) it was 6.25; in [1] (setting [15]), 5.89; in assay [1] (setting [16]), 6.39; in assay [1] (setting [17]), below 5.00. In addition, the “% TGD ((T − C)/C)” value came out at 12% in assay [2] (setting [18]), 52% in assay [2] (setting [19]) and 17% in [2] (setting [20]). The “% TGI at D12 (T/C)” value in [2] (setting [18]) was determined as 19%; in assay [2] (setting [19]), 54%; in assay [2] (setting [20]) it was 49%. Moreover, the “Tumor Free Survival on Day 44” value in assay [3] (30 mg/kg in combination with Rituxan 2 mg/kg iv qw) is listed as 6/9.
Compound `Nc1cccc2c1C(=O)N(C1CCC(=O)NC1=O)C2=O` (stereo not shown) [Pomalidomide, pomalidomide, reference compound] showed a pEC50 in [4] of 8.00. The pIC50 in assay [5] was 7.05; in [6] it was below 4.52; in assay [7], below 4.52; in [8], 5.20; in [9], 4.85; in assay [1] (setting [12]) it was below 5.00. Also, the pIC50 in assay [1] (setting [13]) is below 5.00; in assay [1] (setting [14]), 6.46; in [1] (setting [15]), 5.85; in assay [1] (setting [16]) it was 6.00; in assay [1] (setting [17]) it was below 5.00; in assay [11] (read-out: IgG production IC50) it was 7.20. Moreover, the pIC50 in [11] (read-out: IgM production IC50) is 7.77. In addition, the “less CRBN bound to the affinity beads” value in assay [10] is “approximately 50%”.
In the case of rituximab [Rituxan, reference compound], in [2] (1 mg/kg monotherapy), the “% TGD ((T − C)/C)” value worked out at 34% and the “% TGI at D12 (T/C)” value was determined as 19%. Also, the “Tumor Free Survival on Day 44” value in assay [3] (Rituxan 2 mg/kg iv qw alone) is 2/10.
